Reference: patent US20240043467A1, “5'-SUBSTITUTED NUCLEOSIDE MONOPHOSPHATES, PRODRUGS THEREOF, AND USES RELATED THERETO” (EMORY UNIVERSITY, priority 2020, published 2024)

Target: T1, Recombinant human thymidylate synthase (hTS) (Homo sapiens, UniProt P04818)
T1 construct: purchased Abcam
Experiment: Human thymidylate synthase inhibition assay
Assay type: biochemical
Details: for hTS inhibition: highest concentration tested 20 μM
Method: Recombinant human thymidylate synthase (hTS) was purchased from Abcam. […] 5,10-Methylenetetrahydrofolate (calcium salt) was purchased from Boc Sciences and used without further purification.
The hTS inhibition assays were performed on a BioTek Synergy Neo2 plate reader equipped with a Xenon flash lamp and a photodiode array detector. The hTS reaction was conducted at room temperature in a buffer solution (pH 7.5) containing 50 mM Tris-HCl, 1 mM EDTA, 25 mM MgCl2, and 5 mM HCHO. […] 5,10-Methylenetetrahydrofolate was added last to initiate the reaction. Formation of the co-product, dihydrofolate, was monitored at 340 nm. The absorbance at 340 nm was plotted against the reaction time to calculate the reaction rate (i.e., the slope of the linear fitting). The reaction rates at different inhibitor concentrations were normalized to the reaction rate determined in the absence of inhibitor (100% enzymatic activity). The resulting % enzymatic activity values were plotted against the corresponding log value of the inhibitor concentration to construct concentration-response curves. IC50 values were then calculated using non-linear regression (four-parameter logistic equation, see Equation 1 below) in the GraphPad Prism v.9 software.
Y=Ymin+(Ymax−Ymin)/[1+10^((logIC50−X)×Hill Slope)] Equation 1

T1 sequence (P04818 whole entry): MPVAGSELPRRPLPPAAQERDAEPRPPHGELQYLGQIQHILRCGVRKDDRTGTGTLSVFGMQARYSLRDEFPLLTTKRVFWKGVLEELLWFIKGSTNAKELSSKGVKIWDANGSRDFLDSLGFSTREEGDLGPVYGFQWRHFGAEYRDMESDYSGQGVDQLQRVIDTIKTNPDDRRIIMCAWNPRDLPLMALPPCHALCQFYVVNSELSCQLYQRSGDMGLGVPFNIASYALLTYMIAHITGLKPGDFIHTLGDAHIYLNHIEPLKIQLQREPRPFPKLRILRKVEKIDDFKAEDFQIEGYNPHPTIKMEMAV

Compound: C[C@@H](OP(=O)(O)O)[C@H]1O[C@@H](n2cc(F)c(=O)[nH]c2=O)C[C@@H]1O [MD-7-105, lithium (R)-1-((2S,3S,5R)-5-(5-fluoro-2,4-dioxo-3,4-dihydropyrimidin-1(2H)-yl)-3-hydroxytetrahydrofuran-2-yl)ethyl phosphate]
- IC50 (50 μM dUMP, 0.84 μM hTS, five repeats, pH 7.5, room temperature, read-out: IC50 against hTS): 1210 nM

Compound: C[C@H](OP(=O)(O)O)[C@H]1O[C@@H](n2cc(F)c(=O)[nH]c2=O)C[C@@H]1O [MD-7-112, lithium (S)-1-((2S,3S,5R)-5-(5-fluoro-2,4-dioxo-3,4-dihydropyrimidin-1(2H)-yl)-3-hydroxytetrahydrofuran-2-yl)ethyl phosphate]
- hTS inhibition: inactive

Compound: CC(C)(OP(=O)([O-])[O-])[C@H]1O[C@@H](n2cc(F)c(=O)[nH]c2=O)C[C@@H]1O.[Li+].[Li+] [MD-7-115, lithium 2-((2S,3S,5R)-5-(5-fluoro-2,4-dioxo-3,4-dihydropyrimidin-1(2H)-yl)-3-hydroxytetrahydrofuran-2-yl)propan-2-yl phosphate]
- hTS inhibition: inactive
